Experimental data reported in patent publication US12391684B2, “Pharmaceutical formulations and methods for the treatment of gastrointestinal disorders” (Renexxion, LLC, priority 2018, dated 2025).
Where a name gives a salt, the structure may show the parent alone. Read-outs that look alike come from different tables or passages of the source.

What was measured:
[1] = for Resulting Form: Antisolvent Water, Ambient, stirred 3 weeks
Experimental: Noncompetitive Slurry Experiments for Polymorph Screening: Noncompetitive slurry experiments were performed as a supplemental polymorph screening method. When suspensions of a polymorphic material are prepared, any polymorphic form with a lower solubility (more thermodynamically stable form) can nucleate. The nucleated forms can convert all the residual solids to the nucleated form via solvent-mediated phase transition. Suspensions of the isolated Form I were prepared by adding excess solid to several different solvent systems. The suspensions were stirred vigorously at ambient temperature for 3 weeks. The remaining solids were collected by vacuum filtration and analyzed by powder X-ray diffraction to determine if any changes in the crystalline form of the solids occurred.

[2] = Stability of the trihydrate form stored in bulk in a GMP storage facility; format: physicochemical; conditions: room temperature, relative humidity >30%, up to 11 years
Experimental: The trihydrate form was evaluated for stability with regard to purity and strength over a time period of up to 11 years, by storing it in a GMP facility under controlled conditions of temperature and relative humidity (temperature=room temperature and relative humidity >30%).

[3] = 12-month stability of the anhydrous form in stability chambers (HPLC purity, water content); format: physicochemical; conditions: 25° C./60% RH
Experimental: The dihydrochloride salt, anhydrous form of (3S, 4R, 3′R)-6-[4-(4-amino-5-chloro-2-methoxy-benzoylamino)-3-methoxy-piperidin-1-yl]-hexanoic acid 1-azabicyclo[2.2.2]oct-3′-yl ester, was placed in stability chambers with temperature and humidity controlled, for up to 12 months. The temperature was set at 25° C., and the relative humidity was set at 60%. The samples were assayed at time zero, then at 3, 6, 9, and 12 months using an HPLC method. The HPLC conditions were as follows: • Column: Inertsil C8-3, 250 mm length, 3 mm diameter, 5 μm particle size • Mobile Phase A: 2000 mL water+3 mL formic acid • Mobile Phase B: 1000 mL methanol+3 mL formic acid • Flow rate: 0.6 mL/min • Detection wavelength: 275 nm • Injection volume: 20 uL • Time: 50 minutes

[4] = Dehydration profile by thermographic analysis (TGA); format: physicochemical; conditions: dry nitrogen, 5° C./minute, 25° C. to 250° C.
Experimental: Thermographic analysis (TGA) curves were generated for the anhydrate and trihydrate using a Perkin Elmer TGA-7. Three to five milligram samples were weighed into aluminum sample pans and run under dry nitrogen at 5° C./minute from 25° C. to 250° C. The data were exported to Excel to enable plotting.

COc1cc(N)c(Cl)cc1C(=O)N[C@@H]1CCN(CCCCCC(=O)O[C@H]2CN3CCC2CC3)C[C@@H]1OC [Form I, (3S, 4R, 3′R)-6-[4-(4-amino-5-chloro-2-methoxy-benzoylamino)-3-methoxy-piperidin-1-yl]-hexanoic acid 1-azabicyclo[2.2.2]oct-3′-yl ester]
Resulting Form ([1]; Solvent 1-Propanol): Form 1 | Resulting Form ([1]; Solvent Acetonitrile): Form 1 | Resulting Form ([1]; Solvent Ethanol): Form 1 | Resulting Form ([1]; Solvent Methanol): Form 1 | Resulting Form ([1]; Solvent Water): Form 1 | Thermodynamic stability among anhydrous forms ([1]; outcome of the slurry experiments): most thermodynamically stable anhydrous form

COc1cc(N)c(Cl)cc1C(=O)N[C@@H]1CCN(CCCCCC(=O)O[C@H]2CN3CCC2CC3)C[C@@H]1OC [Compound 1, (3S, 4R, 3′R)-6-[4-(4-amino-5-chloro-2-methoxy-benzoylamino)-3-methoxy-piperidin-1-yl]-hexanoic acid 1-azabicyclo[2.2.2]oct-3′-yl ester di-hydrochloride salt]
Stability under GMP storage [2]: stable under GMP storage

COc1cc(N)c(Cl)cc1C(=O)N[C@@H]1CCN(CCCCCC(=O)O[C@H]2CN3CCC2CC3)C[C@@H]1OC [(3S, 4R, 3′R)-6-[4-(4-amino-5-chloro-2-methoxy-benzoylamino)-3-methoxy-piperidin-1-yl]-hexanoic acid 1-azabicyclo[2.2.2]oct-3′-yl ester]
Purity HPLC (Area %) ([3]; 3 months): 99.2 Area % | Water Content ([3]; 3 months): 6.47% | Purity HPLC (Area %) ([3]; 6 months): 99.3 Area % | Water Content ([3]; 6 months): 8.47% | Water Content ([3]; 6 months, listed as Anhydrous Form of the Dihydrochloride Salt): 8.47% | Purity HPLC (Area %) ([3]; 9 months): 99.2 Area % | Water Content ([3]; 9 months): 8.20% | Purity HPLC (Area %) ([3]; 12 months): 99.3 Area % | Water Content ([3]; 12 months): 8.43% | Purity HPLC (Area %) ([3]; time 0 months): 99.3 Area % | Water Content ([3]; time 0 months): 0.45% | Water Content ([3]; time 0 months, listed as Anhydrous Form of the Dihydrochloride Salt): 0.45% | Decrease in strength of the active ingredient due to increase in water content ([3]; up to 12 months): approximately 8% | Purity of the compound versus specifications (Purity HPLC Area %) ([3]; up to 12 months): remained within the specifications | Dehydration mass loss (TGA) [4]: absent
